Reference: EP0445731B1 (priority 1990, dated 1991)
Where a name gives a salt, the structure may show the parent alone. Read-outs that look alike come from different tables or passages of the source.

Key:
[1] = molecular target: muscarinic binding site; settings: rat cerebral cortex tissue, radiolabeled quinuclidinyl benzilate, read-out: IC₅₀nM RQNB
[2] = molecular target: muscarinic binding site; assay: RCMD screening assay: inhibition of binding of radiolabeled cis-methyldioxolane (muscarinic agonist) to rat cerebral cortex tissue; settings: read-out: IC₅nM RCMD
Description: Similarly, in the RCMD screening assay, described more fully by T. W. Vickeroy, et al, 229(3):747 (1984), rat cerebral cortex tissue was treated with radiolabeled cis-methyldioxolane, a known muscarinic binding site agonist. The concentrations of test compounds required to inhibit 50% of the binding of this muscarinic agonist were then determined. […]

Row | Compound | IC50 ([1]; hydrochloride) [µM] | IC50 ([2]; hydrochloride) [nM] | IC50 [1] [µM] | IC50 [2] [nM]
1 | C=CC=CCON=C1CN2CCC1C2 (single isomer, unassigned) [28 (Isomer A), 1-Azabicyclo[2.2.1]-heptan-3-one, O-(2,4-pentadienyl)oxime hydrochloride] | 0.434 | 12.9 |  | 
2 | C=CC=CCON=C1CN2CCC1C2 (single isomer, unassigned) [28 (Isomer B), 1-Azabicyclo[2.2.1]-heptan-3-one, O-(2,4-pentadienyl)oxime hydrochloride] | 9.65 | 256 |  | 
3 | CCON=C1CN2CCC1C2 (centres unmarked) [Example 2, 1-Azabicyclo[2.2.1]hept-3-one, O-ethyloxime hydrochloride] |  |  | 3.11 | 12.5
4 | CON=C1CN2CCC1C2 (centres unmarked) [Example 3, 1-Azabicyclo[2.2.1]heptan-3-one, O-methyloxime hydrochloride] |  |  | 24.6 | 18.2
5 | C#CCON=C1CN2CCC1C2 (centres unmarked) [Example 4, 1-Azabicyclo[2.2.1]-heptan-3-one, O-(2-propynyl)oxime hydrochloride] |  |  | 2.97 | 3.5
6 | c1ccc(CON=C2CN3CCC2C3)cc1 (centres unmarked) [Example 5, 1-Azabicyclo[2.2.1]-heptan-3-one, O-(phenylmethyl)oxime hydrochloride] |  |  | 5.95 | 133
7 | CCCON=C1CN2CCC1C2 (centres unmarked) [Example 6, 1-Azabicyclo[2.2.1]-heptan-3-one, O-propyloxime hydrochloride] |  |  | 3.85 | 120
8 | CC(C)ON=C1CN2CCC1C2 (centres unmarked) [Example 7, 1-Azabicyclo[2.2.1]-heptan-3-one, O-(1-methylethyl)oxime hydrochloride] |  |  | 2.03 | 46
9 | C=CCON=C1CN2CCC1C2 (centres unmarked) [Example 8, 1-Azabicyclo[2.2.1]-heptan-3-one, O-(2-propenyl)oxime oxalate] |  |  | 4.78 | 53
10 | N#CCON=C1CN2CCC1C2 (centres unmarked) [Example 27, {[(1-Azabicyclo[2.2.1]-heptan-3-ylidene)amino]-oxy}acetonitrile hydrochloride] |  |  | 8.82 | 116
